Experimental data: patent US9656990B2, “Cathepsin cysteine protease inhibitors” (Merck Sharp & Dohme Corp., priority 2014, dated 2017)

Legend:
[1] = molecular target: human cathepsin K (UniProt P43236, Y175D/V274L, species not given); experiment: Cathepsin K Assay; format: biochemical; settings: IP from dose response curve; Z-Leu-Arg-AMC substrate, pH 5.5; read-out: hrbCat K (IP (nM))
[2] = molecular target: T1, human cathepsin F (Homo sapiens, UniProt Q9UBX1); experiment: Cathepsin F Assay; format: biochemical; settings: IP from dose response curve; Z-Phe-Arg-AMC substrate, pH 5.5; read-out: hCat F (IP (nM))
T1 sequence (Q9UBX1 271-484): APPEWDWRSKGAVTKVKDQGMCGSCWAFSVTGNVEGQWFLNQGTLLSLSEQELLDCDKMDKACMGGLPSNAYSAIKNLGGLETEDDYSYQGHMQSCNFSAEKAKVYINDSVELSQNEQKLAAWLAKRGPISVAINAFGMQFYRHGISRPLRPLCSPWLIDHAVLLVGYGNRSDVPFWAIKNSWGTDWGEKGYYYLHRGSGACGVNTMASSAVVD
Description: Serial dilutions (1/3) from 500 μM down to 0.025 μM of test compounds were prepared in dimethyl sulfoxide (DMSO). Then 0.5 μL of DMSO from each dilution were added to 18.75 μL of assay buffer (MES, 50 mM (pH 5.5); EDTA, 2.5 mM; DTT, 2.5 mM and 10% DMSO) containing human cathepsin F (10 nM) in assay buffer solution. The assay solutions were mixed for 5-10 seconds on a shaker plate and incubated for 15 minutes at room temperature. Z-Phe-Arg-AMC (8 μM) in 6.25 μL of assay buffer was added to the assay solutions. Hydrolysis of the coumarin leaving group (AMC) was followed by spectrofluorometry (Exλ=360 nm; Emλ=460 nm) for 20 minutes. Percent of inhibition were calculated by fitting experimental values to standard mathematical model for dose response curve.

Structure (SMILES)	IC50 [1] [nM]	IC50 [2] [nM]
N#CC1(NC(=O)[C@@H]2CCCC[C@H]2c2nn(-c3ccc(C(O)C(F)(F)F)cc3)cc2-c2ccc(N3CCS(=O)(=O)CC3)cc2)CC1 (mixture of isomers) [Example 113, (1R,2R)-N-(1-cyanocyclopropyl)-2-(4-(4-(1,1-dioxidothiomorpholino)phen-yl)-1-(4-((S and R)-2,2,2-trifluoro-1-hydroxyethyl)phenyl)-1H-pyrazol-3-yl)cyclohexanecarboxamide]	0.88	360
N#CC1(NC(=O)[C@@H]2CC3CC3C[C@H]2c2nn(-c3ccc(F)cc3)cc2-c2ccc(N3CCS(=O)(=O)CC3)cc2)CC1 (single isomer, unassigned) [Example 3, (1S or 1R,3R,4R,6R or 6S)—N-(1-Cyanocyclopropyl)-4-(4-(4-(1,1-dioxidothiomorpholino)phenyl)-1-(4-fluorophenyl)-1H-pyrazol-3-yl)bicyclo[4.1.0]heptane-3-carboxamide]	0.84	333
N#CC1(NC(=O)[C@@H]2CC3CC3C[C@H]2c2nn(-c3ccc(F)cc3)cc2-c2ccc(N3CCS(=O)(=O)CC3)cc2)CC1 (single isomer, unassigned) [Example 4, (1R or 1S,3R,4R,6S or 6R)—N-(1-Cyanocyclopropyl)-4-(4-(4-(1,1-dioxidothiomorpholino)phenyl)-1-(4-fluorophenyl)-1H-pyrazol-3-yl)bicyclo[4.1.0]heptane-3-carboxamide]	0.93	258
CC(C#N)NC(=O)[C@@H]1CCC(F)(F)C[C@H]1c1nn(-c2ccc(F)cn2)cc1-c1ccc(N2CCS(=N)(=O)CC2)cc1 (single isomer, unassigned) [Example 23, (1R,2R)-N-((S or R)-1-cyanoethyl)-4,4-difluoro-2-(1-(5-fluoropyridin-2-yl)-4-(4-(1-imino-1-oxidothiomorpholino)phenyl)-1H-pyrazol-3-yl)cyclohexanecarboxamide]	1.07	348
CN=S1(=O)CCN(c2ccc(-c3cn(-c4ccc(F)cn4)nc3[C@@H]3CC(F)(F)CC[C@H]3C(=O)NC(C)C#N)cc2)CC1 (single isomer, unassigned) [Example 25, (1R,2R)-N-((S or R)-1-cyanoethyl)-4,4-difluoro-2-(1-(5-fluoropyridin-2-yl)-4-(4-(1-(methylimino)-1-oxidothiomorpholino)phenyl)-1H-pyrazol-3-yl)cyclohexanecarboxamide]	0.52	431
N#CC(CC(F)(F)F)NC(=O)[C@@H]1CC(F)(F)CC[C@H]1c1nn2ccccc2c1-c1ccc(N2CCS(=O)(=O)CC2)cc1 (single isomer, unassigned) [Example 74, (1R,2R)-N-((S or R)-1-cyano-3,3,3-trifluoropropyl)-2-(3-(4-(1,1-dioxidothiomorpholino)phen-yl)pyrazolo[1,5-a]pyridin-2-yl)-5,5-difluorocyclohexanecarbox-amide]	7.69	252
N#CC(CC(F)(F)F)NC(=O)[C@@H]1CC(F)(F)CC[C@H]1c1nn2ccccc2c1-c1ccc(N2CCS(=O)(=O)CC2)cc1 (single isomer, unassigned) [Example 75, (1R,2R)-N-((R or S)-1-cyano-3,3,3-trifluoropropyl)-2-(3-(4-(1,1-dioxidothiomorpholino)phen-yl)pyrazolo[1,5-a]pyridin-2-yl)-5,5-difluorocyclohexanecarbox-amide]	0.99	21
CC1(C)CCC(C(=O)NC2(C#N)CC2)C(c2nn(-c3ccc(F)cc3)cc2-c2ccc(N3CCS(=O)(=O)CC3)cc2)C1 (single isomer, unassigned) [Example 116, (1R,2R or 1S,2S)-N-(1-cyanocyclopropyl)-2-(4-(4-(1,1-dioxidothiomorpholino)phen-yl)-1-(4-fluorophenyl)-1H-pyrazol-3-yl)-4,4-dimethylcyclohexanecarbox-amide]	328	1200
CC1(C)CC[C@@H](c2nn(-c3ccc(F)cc3)cc2-c2ccc(N3CCS(=O)(=O)CC3)cc2)[C@H](C(=O)NC2(C#N)CC2)C1 (single isomer, unassigned) [Example 127, (1S,2S) or (1R,2R)-N-(1-cyanocyclopropyl)-2-(4-(4-(1,1-dioxidothiomorpholino)phen-yl)-1-(4-fluorophenyl)-1H-pyrazol-3-yl)-5,5-dimethylcyclohexanecarbox-amide]	1.5	632
N#CC1(NC(=O)[C@@H]2CC3CC3C[C@H]2c2nn(-c3ccc(F)cn3)cc2-c2ccc(N3CCS(=O)(=O)CC3)cc2)CC1 (single isomer, unassigned) [Example 152, (1S,3R,4R,6R) or (1R,3R,4R,6S)-N-(1-cyanocyclopropyl)-4-(4-(4-(1,1-dioxidothiomorpholino)phen-yl)-1-(5-fluoropyridin-2-yl)-1H-pyrazol-3-yl)bicyclo[4.1.0]heptane-3-carboxamide]	1.06	338
N#CC1(NC(=O)[C@@H]2CC3CC3C[C@H]2c2nn(-c3ccc(F)cn3)cc2-c2ccc(N3CCS(=O)(=O)CC3)cc2)CC1 (single isomer, unassigned) [Example 153, (1R,3R,4R,6S) or (1S,3R,4R,6R)-N-(1-cyanocyclopropyl)-4-(4-(4-(1,1-dioxidothiomorpholino)phen-yl)-1-(5-fluoropyridin-2-yl)-1H-pyrazol-3-yl)bicyclo[4.1.0]heptane-3-carboxamide]	0.66	265
N#CC1(NC(=O)[C@@H]2CC3CC3C[C@H]2c2nn(-c3ccc(Cl)cn3)cc2-c2ccc(N3CCS(=O)(=O)CC3)cc2)CC1 (single isomer, unassigned) [Example 154, (1R,3R,4R,6S) or (1S,3R,4R,6R)-4-(1-(5-chloropyridin-2-yl)-4-(4-(1,1-dioxidothiomorpholino)phen-yl)-1H-pyrazol-3-yl)-N-(1-cyanocyclopropyl)bicyclo [4.1.0]heptane-3-carboxamide]	0.74	279
N#CC1(NC(=O)[C@@H]2CC3CC3C[C@H]2c2nn(-c3ccc(Cl)cn3)cc2-c2ccc(N3CCS(=O)(=O)CC3)cc2)CC1 (single isomer, unassigned) [Example 155]	0.56	197
N#CC1CCN(c2ccc(-c3cn(-c4ccc(F)cc4)nc3[C@@H]3CCCC[C@H]3C(=O)NC3(C#N)CC3)cc2)CC1 [Example 1, (1R,2R)—N-(1-Cyanocyclopropyl)-2-(4-(4-(4-cyanopiperidin-1-yl)phenyl)-1-(4-fluorophenyl)-1H-pyrazol-3-yl)cyclohexanecarboxamide]	2.72	698
COc1cccc(-n2cc(-c3ccc(N4CCS(=O)(=O)CC4)cc3)c([C@@H]3CCCC[C@H]3C(=O)NC3(C#N)CC3)n2)c1 [Example 2, (1R,2R)—N-(1-Cyanocyclopropyl)-2-(4-(4-(1,1-dioxidothiomorpholino)phenyl)-1-(3-methoxyphenyl)-1H-pyrazol-3-yl)cyclohexanecarboxamide]	0.99	494
N#CC1(NC(=O)[C@@H]2CCCC[C@H]2c2nn(-c3ccc(F)cn3)cc2-c2ccc(N3CCS(=N)(=O)CC3)cc2)CC1 [Example 5, (1R,2R)—N-(1-Cyanocyclopropyl)-2-(1-(5-fluoropyridin-2-yl)-4-(4-(1-imino-1-oxidothiomorpholino)phenyl)-1H-pyrazol-3-yl)cyclohexanecarboxamide]	1.53	877
